Assays:
[1] = system: p21 promoter-luciferase construct; assay: p21 reporter gene induction in HeLa cells transfected with p21 promoter-luciferase construct; format: cell-based; conditions: for p21 RP3: relative gene level of p21 induced compared to MS275 at 3 μM; for p21 RP10: relative level of p21 induced compared to MS275 at 10 μM; for p21 RP30: relative level of p21 induced compared to MS275 at 30 μM
Procedure: As a surrogate for in-cell HDAC1/2/3 inhibition, p21 induction was used as a counterscreen to evaluate the selectivity of the compounds in the present invention toward HDAC6 or HDAC8.
The novel compounds of the present invention were tested for their ability to induce p21 gene expression using a reporter gene assay involving HeLa cells transfected with a p21 promoter-luciferase construct. The p21 promoter contained the Sp1/Sp3 binding site for HDAC but not the upstream p53 binding site. Briefly, the day before transfection, HeLa cells were seeded at 11,000 cells/well in a 96-well culture plate and incubated at 37° C. in 5% CO2 overnight. A transfection media was prepared prior to transfection according to the following procedure: (1) 5 μl serum-free DMEM, 0.15 μl Fugene 6 reagent, 40 ng p21-luc, 10 ng GFP were mixed gently and incubated at rt for 30 minutes; (2), then 98 μl DMEM (with 10% FBS, 1% penicillin and streptomycin) was added to the DNA: Fugene 6 reagent complex and mixed gently. For transfection, the medium was removed and replaced with 100 μl/well transfection media which was prepared according to the procedure above. After incubating the cells for 24 hours at 37° C. in 5% CO2, fresh media and test compounds were added to the wells and the cells further incubated for 15 hours at 37° C. in 5% CO2. Cells were lysed by adding 80 μl/well of a cell culture lysis reagent (Promega). […] 100 μl luciferase assay reagent (Promega) was then added to every 20 μl cell lysate for luminometer detection. […] Induction activity for specific representative compounds can be found in Table 3.

recombinant human HDAC8 = recombinant human HDAC8 (Homo sapiens (Human), UniProt Q9BY41); assay: HDAC8 inhibition: recombinant HDAC8 fluorometric assay; format: biochemical; conditions: recombinant human HDAC8, substrate Ac-Arg-His-Lys-Lys(ε-acetyl)-AMC
Procedure: A competitive inhibitory assay of HDAC8 was carried out by using recombinant HDAC8 and a commercial substrate Ac-Arg-His-Lys-Lys(ε-acetyl)-AMC.
Compounds were tested for their ability to inhibit histone deacetylase 8 using an in vitro deacetylation assay. The enzyme source for this assay was recombinant human HDAC8 protein expressed and purified from insect cells. […] The substrate consisted of a commercial product Ac-Arg-His-Lys-Lys(ε-acetyl)-AMC (substrate is available from Cayman Chemical). […] In a detailed procedure, 8 μl of HDAC8 enzyme solution (0.125 μg/μl) was transferred to assay plates (CORNING 3676). 1 μl of half-log diluted compounds were added into wells and incubated for 15 min at rt. After that, 8 μl of substrate solution was transferred to the wells and incubated for 30 min at rt. After deacetylation of the substrate by incubation with HDAC8 enzyme, subsequent exposure to a developing reagent produced a fluorophore that was directly proportional to the level of deacetylation. So 4 μl of developer regent (Cayman 10006394) was added into the wells in the assay plates and incubated for 15 min. The fluorescence signal was measured by a FlexStation3 plate reader (excitation wave length 340-360 nm; emission wave length 440-465 nm). The IC50 was calculated after normalization and curve fitting using XLfit4.0 software. Inhibition %=[Mean(top)−signal(sample)]*100/[Mean(top)−Mean(bottom)].

HDAC6 = HDAC6 (Homo sapiens (Human), UniProt Q9UBN7); assay: Tubulin acetylation cytoblot assay (A549 cells); format: cell-based; conditions: 17-18 h, concentration for 50% induction of acetylated tubulin, read-out: Tub-ac EC50
Procedure: Tubulin acetylation is a PD marker for HDAC6 inhibition. The extent of tubulin acetylation represents the inhibitory effect on HDAC6.
Novel compounds were tested for their ability to inhibit HDAC6 using a cell-based deacetylation assay. Tubulin acetylation was detected by the anti-acetylated tubulin antibody (Sigma) and horse radish peroxidase (HRP) conjugated secondary antibody (KangChen Bio. Tech.). […] 20 μl of diluted compound solution was transferred to the cell culture plate and incubated for 17-18 h. After medium removal and fixation by formaldehyde (3.7% paraformaldehyde in TBS), the cells in the plates were treated with 180 μl of −20° C. MeOH and incubated for 5 min at rt. The cell lysis was incubated with 75 μl of primary anti-acetylated tubulin antibody and secondary HRP conjugated antibody solution (1:750 anti-acetylated tubulin, 1:750 HRP conjugated anti-mouse IgG in antibody dilution buffer not containing sodium azide) for 4 h at 4° C. By adding the HRP substrate, enhanced chemiluminescence (ECL) reagent (GE Healthcare) generated luminescence corresponding to the level of tubulin acetylation. So that 75 μl of ECL was added into the wells and the luminescence from each well was immediately quantified by the plate reader. Based on the luminescence reading, the IC50s against HDAC6 of the tested compounds were calculated by plotting the curve with XLfit4.0 software. Inhibition %=[signal(sample)−Mean(bottom)]*100/[Mean(top)−Mean(bottom)]

Chain of recombinant human HDAC8 (Q9BY41 whole entry): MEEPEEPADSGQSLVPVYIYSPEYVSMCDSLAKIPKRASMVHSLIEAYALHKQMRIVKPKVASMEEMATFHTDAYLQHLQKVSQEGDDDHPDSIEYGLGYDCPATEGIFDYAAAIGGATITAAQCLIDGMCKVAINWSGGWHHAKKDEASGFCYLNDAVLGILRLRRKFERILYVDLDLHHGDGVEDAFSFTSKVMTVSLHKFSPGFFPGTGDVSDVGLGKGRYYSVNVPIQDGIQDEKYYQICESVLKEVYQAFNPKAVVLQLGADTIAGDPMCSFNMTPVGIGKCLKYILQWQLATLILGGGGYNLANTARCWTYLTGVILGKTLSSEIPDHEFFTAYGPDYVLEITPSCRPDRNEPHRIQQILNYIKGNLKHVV
Chain of HDAC6 (Q9UBN7 whole entry): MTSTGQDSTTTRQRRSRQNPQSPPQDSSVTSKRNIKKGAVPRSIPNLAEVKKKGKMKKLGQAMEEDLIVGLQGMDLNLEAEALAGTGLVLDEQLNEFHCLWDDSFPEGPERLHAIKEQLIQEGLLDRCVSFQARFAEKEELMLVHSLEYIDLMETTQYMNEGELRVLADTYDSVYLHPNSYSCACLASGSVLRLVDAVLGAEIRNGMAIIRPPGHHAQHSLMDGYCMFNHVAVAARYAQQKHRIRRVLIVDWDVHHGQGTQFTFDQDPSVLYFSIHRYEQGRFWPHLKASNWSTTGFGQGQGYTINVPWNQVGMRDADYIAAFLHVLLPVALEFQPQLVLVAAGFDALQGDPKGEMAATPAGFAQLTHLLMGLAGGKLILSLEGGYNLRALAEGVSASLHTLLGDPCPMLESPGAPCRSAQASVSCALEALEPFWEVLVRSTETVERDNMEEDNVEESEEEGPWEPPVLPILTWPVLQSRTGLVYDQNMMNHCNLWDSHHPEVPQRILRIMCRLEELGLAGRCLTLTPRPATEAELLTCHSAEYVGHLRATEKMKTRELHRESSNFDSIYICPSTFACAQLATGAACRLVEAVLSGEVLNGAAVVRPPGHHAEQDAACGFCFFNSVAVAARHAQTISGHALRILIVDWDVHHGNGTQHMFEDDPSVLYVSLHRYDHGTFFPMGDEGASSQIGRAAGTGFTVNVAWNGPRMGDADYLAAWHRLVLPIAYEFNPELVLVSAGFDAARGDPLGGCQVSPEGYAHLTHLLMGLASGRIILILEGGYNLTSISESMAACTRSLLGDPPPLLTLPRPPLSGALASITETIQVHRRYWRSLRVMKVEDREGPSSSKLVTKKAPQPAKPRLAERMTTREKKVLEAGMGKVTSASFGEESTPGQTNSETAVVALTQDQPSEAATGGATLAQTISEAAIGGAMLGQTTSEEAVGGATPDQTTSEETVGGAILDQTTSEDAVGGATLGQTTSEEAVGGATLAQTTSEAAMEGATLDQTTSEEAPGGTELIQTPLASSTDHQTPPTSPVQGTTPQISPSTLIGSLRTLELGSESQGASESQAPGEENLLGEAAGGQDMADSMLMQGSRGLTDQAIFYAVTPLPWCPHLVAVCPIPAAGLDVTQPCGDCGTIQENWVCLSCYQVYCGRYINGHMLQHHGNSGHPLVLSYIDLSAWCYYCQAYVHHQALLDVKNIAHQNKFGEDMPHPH

SMILES | IC50 (recombinant human HDAC8) [µM] | EC50 (HDAC6) [µM] | p21 RP3 [1] | p21 RP10 [1] | p21 RP30 [1]
O=C(NO)c1ccc2c(c1)CC(NS(=O)(=O)c1ccc(Cl)cc1)CC2 (stereo not shown) [Example 41, 7-(4-Chloro-benzenesulfonylamino)-5,6,7,8-tetrahydro-naphthalene-2-carboxylic acid hydroxyamide] | 0.85 | 1.07 | −0.15 | 0.35 | 0.05
O=C(NO)c1ccc2c(c1)CC(NS(=O)(=O)c1ccc(F)cc1F)CC2 (stereo not shown) [Example 44, 7-(2,4-Difluoro-benzenesulfonylamino)-5,6,7,8-tetrahydro-naphthalene-2-carboxylic acid hydroxyamide] | 0.21 | 3.9 | 0.63 | 0.32 | 0.56
COc1ccc(S(=O)(=O)NC2CCc3ccc(C(=O)NO)cc3C2)cc1OC (stereo not shown) [Example 45, 7-(3,4-Dimethoxy-benzenesulfonylamino)-5,6,7,8-tetrahydro-naphthalene-2-carboxylic acid hydroxyamide] | 0.39 | 3.43 | 0.18 | 0.18 | 0.46
O=C(NO)c1ccc2c(c1)CC(NS(=O)(=O)c1cccnc1)CC2 (stereo not shown) [Example 48, 7-(Pyridine-3-sulfonylamino)-5,6,7,8-tetrahydro-naphthalene-2-carboxylic acid hydroxyamide] | 0.37 | 6.2 | 0.41 | 0.17 | 0.17
O=C(NO)c1cc2c(cc1F)CCC(NS(=O)(=O)c1ccc(Cl)cc1)C2 (stereo not shown) [Example 51, 7-(4-Chloro-benzenesulfonylamino)-3-fluoro-5,6,7,8-tetrahydro-naphthalene-2-carboxylic acid hydroxyamide] | 1.28 | 5.2 | 0.20 | 0.03 | 0.00
O=C(NO)c1cc2c(cc1F)CCC(NS(=O)(=O)c1cccc(Cl)c1)C2 (stereo not shown) [Example 52, 7-(3-Chloro-benzenesulfonylamino)-3-fluoro-5,6,7,8-tetrahydro-naphthalene-2-carboxylic acid hydroxyamide] | 0.93 | 3.74 | 0.12 | 0.01 | −0.02
COc1cccc(C(=O)NC2CNc3ccc(C(=O)NO)cc3C2)c1 (stereo not shown) [Example 54, 3-(3-Methoxy-benzoylamino)-1,2,3,4-tetrahydro-quinoline-6-carboxylic acid hydroxyamide] | 2.81 | 3.39 | 0.03 | 0.03 | 0.07
O=C(NO)c1ccc2c(c1)CC(NC(=O)c1cccc(C(F)(F)F)c1)CN2 (stereo not shown) [Example 57, 3-(3-Trifluoromethyl-benzoylamino)-1,2,3,4-tetrahydro-quinoline-6-carboxylic acid hydroxyamide] | 2.67 | 7.13 | 0.07 | 0.01 | 0.04
O=C(NO)c1ccc2c(c1)CC(NC(=O)c1ccc(Cl)c(Cl)c1)CN2 (stereo not shown) [Example 58, 3-(3,4-Dichloro-benzoylamino)-1,2,3,4-tetrahydro-quinoline-6-carboxylic acid hydroxyamide] | 2.63 | 5.36 | 0.03 | −0.03 | 0.01
O=C(NO)c1ccc2c(c1)CC(NC(=O)c1ccc(-c3ccccc3)cc1)CN2 (stereo not shown) [Example 59, 3-[(Biphenyl-4-carbonyl)-amino]-1,2,3,4-tetrahydro-quinoline-6-carboxylic acid hydroxyamide] | 2.85 | 7.99 | 0.20 | 0.08 | 0.15
CN1CC(NS(=O)(=O)c2ccc(Cl)cc2)Cc2cc(C(=O)NO)ccc21 (stereo not shown) [Example 65, 3-(4-Chloro-benzenesulfonylamino)-1-methyl-1,2,3,4-tetrahydro-quinoline-6-carboxylic acid hydroxyamide] | 0.75 | 10.6 | 0.41 | 0.26 | 0.46

The remaining molecules from weak to strong by IC50 (recombinant human HDAC8), led by results:

IC50 (recombinant human HDAC8) [µM] | EC50 (HDAC6) [µM] | SMILES | p21 RP3 [1] | p21 RP10 [1] | p21 RP30 [1]
3.37 | 3.43 | O=C(NO)c1ccc2c(c1)CC(NC(=O)c1cccc(Cl)c1)CN2 (stereo not shown) [Example 56, 3-(3-Chloro-benzoylamino)-1,2,3,4-tetrahydro-quinoline-6-carboxylic acid hydroxyamide] | 0.04 | 0.05 | 0.12
2.41 | 2.69 | O=C(NO)c1ccc2c(c1)CC(NC(=O)c1ccc(Cl)cc1)CN2 (stereo not shown) [Example 55, 3-(4-Chloro-benzoylamino)-1,2,3,4-tetrahydro-quinoline-6-carboxylic acid hydroxyamide] | 0.50 | 0.13 | 0.06
1.51 | 6.43 | O=C(NO)c1cc2c(cc1F)CCC(Nc1nccc(-c3cccnc3)n1)C2 (stereo not shown) [Example 50, 3-Fluoro-7-(4-pyridin-3-yl-pyrimidin-2-ylamino)-5,6,7,8-tetrahydro-naphthalene-2-carboxylic acid hydroxyamide] | 0.26 | 0.03 | −0.01
0.47 | 3.42 | O=C(NO)c1ccc2c(c1)CC(NS(=O)(=O)c1ccc(Cl)c(Cl)c1)CC2 (stereo not shown) [Example 47, 7-(3,4-Dichloro-benzenesulfonylamino)-5,6,7,8-tetrahydro-naphthalene-2-carboxylic acid hydroxyamide] | 0.08 | 0.01 | −0.04
0.37 | 3.85 | O=C(NO)c1ccc2c(c1)CC(NS(=O)(=O)c1cccc(C(F)(F)F)c1)CC2 (stereo not shown) [Example 43, 7-(3-Trifluoromethyl-benzenesulfonylamino)-5,6,7,8-tetrahydro-naphthalene-2-carboxylic acid hydroxyamid] | 0.13 | 0.08 | −0.04
0.19 | 4.86 | O=C(NO)c1ccc2c(c1)CC(NS(=O)(=O)c1ccc(Cl)cc1Cl)CC2 (stereo not shown) [Example 46, 7-(2,4-Dichloro-benzenesulfonylamino)-5,6,7,8-tetrahydro-naphthalene-2-carboxylic acid hydroxyamide] | 0.49 | 0.15 | 0.01

— patent US8716285B2, “N-hydroxy-benzamids for the treatment of cancer” (Hoffmann-La Roche Inc., priority 2010, dated 2014)
